Laboratory results from patent publication US20070275968A1, “Substituted Biphenyl Derivative” (priority 2004, published 2007).

| melting point | Structure (SMILES) |
| --- | --- |
| 115 to 119 °C | Cc1cccc(-c2[nH]c(C(C)C)nc2-c2cccc(-c3ccc4c(c3)C(=O)CCS4(=O)=O)c2)n1 [Example 81, 6-{3-[2-Isopropyl-5-(6-methylpyridin-2-yl)-1H-imidazol-4-yl]phenyl}-2,3-dihydro-4H-thiochromen-4-one 1,1-dioxide] |
| 120 to 122 °C | Cc1cccc(-c2[nH]c(C(C)C)nc2-c2cccc(-c3ccc(OC(F)(F)F)cc3)c2)n1 [Example 10, 2-{2-Isopropyl-4-[4′-(trifluoromethoxy)-1,1′-biphenyl-3-yl]-1H-imidazol-5-yl}-6-methylpyridine] |
| 126 to 129 °C | Cc1cccc(-c2[nH]c(CC(C)C)nc2-c2cccc(-c3ccc(C(=O)NC4CCOCC4)cc3)c2)n1 [Example 45, N-(Tetrahydropyran-4-yl)-4-{3-[2-isobutyl-5-(6-methylpyridin-2-yl)-1H-imidazol-4-yl]phenyl}benzamide] |
| 239 to 240 °C | Cc1cccc(-c2n[nH]cc2-c2ccc(F)c(-c3c[nH]c(CCN4CCOCC4)n3)c2)n1 [Example 213, 4-[2-(4-{2-Fluoro-5-[3-(6-methylpyridin-2-yl)-1H-pyrazol-4-yl]phenyl}-1H-imidazol-2-yl)ethyl]morpholine] |
| 83 to 85 °C | Cc1cccc(-c2[nH]c(C(C)C)nc2-c2cccc(-c3ccc(F)cc3)c2)n1 [Example 8, 2-[4-(4′-Fluoro-1,1′-biphenyl-3-yl)-2-isopropyl-1H-imidazol-5-yl]-6-methylpyridine] |
| 136 to 140 °C | Cc1cccc(-c2nc(C(C)C)[nH]c2-c2cccc(-c3ccc(C(=O)N4CC[S+]([O-])CC4)cc3)c2)n1 [Example 56, 4-({3′-[2-Isopropyl-4-(6-methylpyridin-2-yl)-1H-imidazol-5-yl]-1,1′-biphenyl-4-yl}carbonyl)thiomorpholine 1-oxide] |
| 141 to 142 °C | Cc1cccc(-c2n[nH]cc2-c2ccc(F)c(-c3ccc[nH]3)c2)n1 [Example 193, 2-{4-[4-Fluoro-3-(1H-pyrrol-2-yl)phenyl]-1H-pyrazol-3-yl}-6-methylpyridine] |
| 145 to 148 °C | Cc1cccc(-c2[nH]c(C(C)C)nc2-c2cccc(-c3ccc4c(c3)C(=O)CC[S+]4[O-])c2)n1 (centres unmarked) [Example 80, 6-{3-[2-Isopropyl-5-(6-methylpyridin-2-yl)-1H-imidazol-4-yl]phenyl}-2,3-dihydro-4H-thiochromen-4-one 1-oxide] |
| 136 to 139 °C | Cc1cccc(-c2[nH]c(C(C)C)nc2-c2cccc(-c3ccc4c(c3)CCC[S+]4[O-])c2)n1 (centres unmarked) [Example 83, 2-{2-Isopropyl-4-[3-(1-oxido-3,4-dihydro-2H-thiochromen-6-yl)phenyl]-1H-imidazol-5-yl}-6-methylpyridine] |
| 138 to 144 °C | Cc1cccc(-c2[nH]c(C(C)C)nc2-c2cccc(-c3ccc(C(N)=O)cn3)c2)n1 [Example 36, 6-{3-[2-Isopropyl-5-(6-methylpyridin-2-yl)-1H-imidazol-4-yl]phenyl}nicotinamide] |
| 84 to 86 °C | Cc1cccc(-c2nc(C(C)C)[nH]c2-c2cccc(-c3cnn(C)c3)c2)n1 [Example 70, 2-{2-Isopropyl-5-[3-(1-methyl-1H-pyrazol-4-yl)phenyl]-1H-imidazol-4-yl}-6-methylpyridine] |
| 103 to 116 °C | CCS(=O)(=O)c1ccc(-c2cccc(-c3nc(C(C)C)[nH]c3-c3cccc(C)n3)c2)cc1 [Example 25, 2-{2-Isopropyl-4-[4′-(ethylsulfonyl)-1,1′-biphenyl-3-yl]-1H-imidazol-5-yl}-6-methylpyridine] |
| 197 to 198 °C | Cc1cccc(-c2n[nH]cc2-c2ccc(F)c(-c3ccc(C(C)(O)C(F)(F)F)cn3)c2)n1 (centres unmarked) [Example 164, 1,1,1-Trifluoro-2-(6-{2-fluoro-5-[3-(6-methylpyridin-2-yl)-1H-pyrazol-4-yl]phenyl}pyridin-3-yl)propan-2-ol] |
| 104 to 109 °C | Cc1cccc(-c2n[nH]cc2-c2ccc(F)c(-c3ccc(O)c(S(N)(=O)=O)c3)c2)n1 [Example 148, 2′-Fluoro-4-hydroxy-5′-[3-(6-methylpyridin-2-yl)-1H-pyrazol-4-yl]-1,1′-biphenyl-3-sulfonamide] |
| 122 to 125 °C | Cc1cccc(-c2n[nH]cc2-c2ccc(F)c(-c3cc(F)c(S(N)(=O)=O)cc3F)c2)n1 [Example 149, 2,2′,5-Trifluoro-5′-[3-(6-methylpyridin-2-yl)-1H-pyrazol-4-yl]-1,1′-biphenyl-4-sulfonamide] |
| 81 to 84 °C | Cc1cccc(-c2n[nH]cc2-c2ccc(F)c(-c3ccc(S(=O)(=O)C(F)(F)F)cc3)c2)n1 [Example 168, 2-(4-{6-Fluoro-4′-[(trifluoromethyl)sulfonyl]-1,1′-biphenyl-3-yl}-1H-pyrazol-3-yl)-6-methylpyridine] |
| 112 to 114 °C | Cc1cccc(-c2[nH]c(C(C)C)nc2-c2cccc(-c3cc[nH]c3)c2)n1 [Example 78, 2-{2-Isopropyl-4-[3-(1H-pyrrol-3-yl)phenyl]-1H-imidazol-5-yl}-6-methylpyridine] |
| 105 to 108 °C | Cc1cccc(-c2n[nH]cc2-c2ccc(F)c(-c3cc[nH]n3)c2)n1 [Example 205, 2-{4-[4-Fluoro-3-(1H-pyrazol-3-yl)phenyl]-1H-pyrazol-3-yl}-6-methylpyridine] |

| melting point | Structure (SMILES) |
| --- | --- |
| 108 to 110 °C | CCc1cccc(-c2[nH]c(C(C)C)nc2-c2cccc(-c3ccc(S(C)(=O)=O)cc3)c2)n1 [Example 64, 2-Ethyl-6-{2-isopropyl-4-[4′-(methylsulfonyl)-1,1′-biphenyl-3-yl]-1H-imidazol-5-yl}pyridine] |
| 88 to 92 °C | Cc1cccc(-c2[nH]c(C(C)C)nc2-c2cccc(-c3ccc(S(=O)(=O)N4CCOCC4)cc3)c2)n1 [Example 40, 4-({3′-[2-Isopropyl-5-(6-methylpyridin-2-yl)-1H-imidazol-4-yl]-1,1′-biphenyl-4-yl}sulfonyl)morpholine] |
| 76 to 79 °C | Cc1ccc(-c2cccc(-c3nc(C(C)C)[nH]c3-c3cccc(C)n3)c2)cc1 [Example 3, 2-[2-Isopropyl-4-(4′-methyl-1,1′-biphenyl-3-yl)-1H-imidazol-5-yl]-6-methylpyridine] |
| 88 to 90 °C | Cc1cccc(-c2n[nH]cc2-c2ccc(F)c(-c3ccc(S(=O)(=O)CCO)cc3)c2)n1 [Example 170, 2-({2′-Fluoro-5′-[3-(6-methylpyridin-2-yl)-1H-pyrazol-4-yl]-1,1′-biphenyl-4-yl}sulfonyl)ethanol] |
| 177 to 180 °C | Cc1cccc(-c2[nH]c(C(C)C)nc2-c2ccc(F)c(-c3c[nH]c(=O)[nH]3)c2)n1 [Example 140, 4-{2-Fluoro-5-[2-isopropyl-5-(6-methylpyridin-2-yl)-1H-imidazol-4-yl]phenyl}-1,3-dihydro-2H-imidazol-2-one] |
| 66 to 67 °C | Cc1cccc(-c2nn(C)cc2-c2ccc(F)c(-c3ccc(S(C)(=O)=O)cc3)c2)n1 [Example 199, 2-{4-[6-Fluoro-4′-(methylsulfonyl)-1,1′-biphenyl-3-yl]-1-methyl-1H-pyrazol-3-yl}-6-methylpyridine] |
| 75 to 77 °C | COc1ccc(-c2cccc(-c3nc(C(C)C)[nH]c3-c3cccc(C)n3)c2)cc1 [Example 4, 2-[2-Isopropyl-4-(4′-methoxy-1,1′-biphenyl-3-yl)-1H-imidazol-5-yl]-6-methylpyridine] |
| 78 to 80 °C | Cc1cccc(-c2n[nH]cc2-c2ccc(F)c(-c3csc(C(C)(C)O)n3)c2)n1 [Example 178, 2-(4-{2-Fluoro-5-[3-(6-methylpyridin-2-yl)-1H-pyrazol-4-yl]phenyl}-1,3-thiazol-2-yl)propan-2-ol] |
| 106 to 110 °C | Cc1cccc(-c2[nH]c(C(C)C)nc2-c2ccc(F)c(-c3cc[nH]c3)c2)n1 [Example 123, 2-{4-[4-Fluoro-3-(1H-pyrrol-3-yl)phenyl]-2-isopropyl-1H-imidazol-5-yl}-6-methylpyridine] |
| 195 to 198 °C | Cc1cccc(-c2[nH]c(C(C)C)nc2-c2ccc(F)c(-c3cc[nH]n3)c2)n1 [Example 135, 2-{4-[4-Fluoro-3-(1H-pyrazol-3-yl)phenyl]-2-isopropyl-1H-imidazol-5-yl}-6-methylpyridine] |
| 97 °C | Cc1cccc(-c2n[nH]cc2-c2ccc(F)c(-c3ccc(N4CCN(C)CC4)cn3)c2)n1 [Example 188, 1-(6-{2-Fluoro-5-[3-(6-methylpyridin-2-yl)-1H-pyrazol-4-yl]phenyl}pyridin-3-yl)-4-methylpiperazine] |
| 113 to 123 °C (dec.) | Cc1cccc(-c2[nH]c(C(C)C)nc2-c2cccc(-c3ccc(CN)cc3)c2)n1 [Example 29, 1-{3′-[2-Isopropyl-5-(6-methylpyridin-2-yl)-1H-imidazol-4-yl]-1,1′-biphenyl-4-yl}methanamine] |
| 160 to 161 °C | Cc1cccc(-c2[nH]c(C(C)C)nc2-c2ccc(F)c(-c3ccc(C(=O)O)cc3)c2)n1 [Example 101, 2′-Fluoro-5′-[2-isopropyl-5-(6-methylpyridin-2-yl)-1H-imidazol-4-yl]-1,1′-biphenyl-4-carboxylic acid] |
| 144 to 145 °C | Cc1cccc(-c2n[nH]cc2-c2ccc(F)c(-c3cn(CCN4CCOCC4)cn3)c2)n1 [Example 185, 4-[2-(4-{2-Fluoro-5-[3-(6-methylpyridin-2-yl)-1H-pyrazol-4-yl]phenyl}-1H-imidazol-1-yl)ethyl]morpholine] |
| 109 to 111 °C | Cc1cccc(-c2[nH]c(C(C)C)nc2-c2ccc(F)c(-c3ccc(N4CCOCC4)cc3)c2)n1 [Example 100, 4-{2′-Fluoro-5′-[2-isopropyl-5-(6-methylpyridin-2-yl)-1H-imidazol-4-yl]-1,1′-biphenyl-4-yl}morpholine] |
| 179 to 184 °C | Cc1cccc(-c2[nH]c(C(C)C)nc2-c2cccc(-c3ccc(NS(C)(=O)=O)cc3F)c2)n1 [Example 73, N-{2-Fluoro-3′-[2-isopropyl-5-(6-methylpyridin-2-yl)-1H-imidazol-4-yl]-1,1′-biphenyl-4-yl}methanesulfonamide] |
| 107 to 109 °C | Cc1cccc(-c2nc(N)sc2-c2cccc(-c3ccc(S(C)(=O)=O)cc3)c2)n1 [Example 62, 4-(6-Methylpyridin-2-yl)-5-[4′-(methylsulfonyl)-1,1′-biphenyl-3-yl]-1,3-thiazol-2-amine] |
